Target: T1, RSK2 (Homo sapiens, UniProt P51812)
T1 construct: gene RPS6KA3
Experiment: in vitro kinase assay with recombinant active RSK2 and ATF1 substrate (Western blot); supported by pull-down of recombinant RSK2 with carnosol-Sepharose 4B beads
Assay type: biochemical

T1 sequence (P51812 whole entry): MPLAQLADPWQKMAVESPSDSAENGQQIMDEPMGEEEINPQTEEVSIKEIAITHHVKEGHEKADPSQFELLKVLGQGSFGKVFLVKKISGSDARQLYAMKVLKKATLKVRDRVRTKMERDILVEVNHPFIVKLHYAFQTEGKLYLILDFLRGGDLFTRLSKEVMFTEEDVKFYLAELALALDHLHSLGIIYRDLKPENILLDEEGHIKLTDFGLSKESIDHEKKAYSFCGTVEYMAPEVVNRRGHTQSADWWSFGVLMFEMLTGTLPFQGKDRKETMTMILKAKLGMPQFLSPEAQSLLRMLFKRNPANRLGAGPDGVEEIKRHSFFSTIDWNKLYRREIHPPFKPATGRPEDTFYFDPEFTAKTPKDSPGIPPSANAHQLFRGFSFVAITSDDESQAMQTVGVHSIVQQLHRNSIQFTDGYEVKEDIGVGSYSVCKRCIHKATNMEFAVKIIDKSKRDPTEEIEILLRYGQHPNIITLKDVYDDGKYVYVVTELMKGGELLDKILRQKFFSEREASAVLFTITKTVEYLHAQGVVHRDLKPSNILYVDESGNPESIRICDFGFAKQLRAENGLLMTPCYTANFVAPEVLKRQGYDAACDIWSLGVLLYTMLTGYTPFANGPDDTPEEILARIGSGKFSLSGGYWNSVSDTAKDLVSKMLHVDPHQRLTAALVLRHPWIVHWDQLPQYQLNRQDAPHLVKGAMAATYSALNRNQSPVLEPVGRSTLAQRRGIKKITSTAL

IC50: ~5.5 µM
SMILES: CC(C)c1cc2c(c(O)c1O)[C@@]13CCCC(C)(C)[C@@H]1C[C@@H]2OC3=O [Carnosol]

From publication PMC6188138, “Carnosol suppresses patient-derived gastric tumor growth by targeting RSK2” (Oncotarget, 2018)
